According to ChEMBL document CHEMBL1201862, “PubChem BioAssay data set” (2004):
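Values below derive from 48-hour exposures of cells grown in 96-well plates, with endpoints linearly interpolated between the two concentrations bracketing the appropriate inhibition level. GI50 marks 50% less growth.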 Activity calls are given as the source filed them. No stated cut-off is given here; in the data, active = GI50 up to about 1.1 µM and inactive = higher.

Experiments:
Test in all cases: NCI-60 cell line screen, 48 h
T47D = test system: T47D
MDA-MB-231 = test system: MDA-MB-231
SK-MEL-5 = test system: SK-MEL-5
HCC 2998 = test system: HCC 2998
CAKI-1 = test system: CAKI-1
SK-MEL-2 = test system: SK-MEL-2
SNB-75 = test system: SNB-75
SN12C = test system: SN12C
HOP-92 = test system: HOP-92
A549 = test system: A549
RXF 393 = test system: RXF 393
MDA-MB-435 = test system: MDA-MB-435
HL-60 = test system: HL-60
A498 = test system: A498
NCI-H460 = test system: NCI-H460
IGROV-1 = test system: IGROV-1
NCI-H226 = test system: NCI-H226
HCT-15 = test system: HCT-15
OVCAR-4 = test system: OVCAR-4
RPMI-8226 = test system: RPMI-8226
CCRF-CEM = test system: CCRF-CEM
DU-145 = test system: DU-145
LOX IMVI = test system: LOX IMVI
OVCAR-8 = test system: OVCAR-8
786-0 = test system: 786-0
BT-549 = test system: BT-549
M14 = test system: M14
NCI/ADR-RES = test system: NCI/ADR-RES
TK-10 = test system: TK-10
HOP-62 = test system: HOP-62
UACC-62 = test system: UACC-62
K562 = test system: K562
KM12 = test system: KM12
NCI-H23 = test system: NCI-H23
SF-295 = test system: SF-295
SW-620 = test system: SW-620
UO-31 = test system: UO-31
MCF7 = test system: MCF7
MOLT-4 = test system: MOLT-4
SNB-19 = test system: SNB-19
EKVX = test system: EKVX
MDA-N = test system: MDA-N
HCT-116 = test system: HCT-116
OVCAR-5 = test system: OVCAR-5
SK-MEL-28 = test system: SK-MEL-28
SF-268 = test system: SF-268
Hs-578T = test system: Hs-578T
NCI-H522 = test system: NCI-H522
UACC-257 = test system: UACC-257
SK-OV-3 = test system: SK-OV-3
Malme-3M = test system: Malme-3M
COLO 205 = test system: COLO 205
OVCAR-3 = test system: OVCAR-3
SR = test system: SR
SF-539 = test system: SF-539
HT-29 = test system: HT-29
ACHN = test system: ACHN
PC-3 = test system: PC-3
U-251 = test system: U-251

Nc1ncc(N)c(NCC2(CO)CC(CCc3ccccc3)C2)n1 (configuration not stated)
GI50 (T47D): 1.11 µM (active)
GI50 (MDA-MB-231): 4.65 µM (inactive)
GI50 (SK-MEL-5): 3.13 µM (inactive)
GI50 (HCC 2998): 11.3 µM (inactive)
GI50 (CAKI-1): 7.73 µM (inactive)
GI50 (SK-MEL-2): 6.95 µM (inactive)
GI50 (SNB-75): 12.6 µM (inactive)
GI50 (SN12C): 7.67 µM (inactive)
GI50 (HOP-92): 3.39 µM (inactive)
GI50 (A549): 9.73 µM (inactive)
GI50 (RXF 393): 12.5 µM (inactive)
GI50 (MDA-MB-435): 11 µM (inactive)
GI50 (HL-60): 0.12 µM (active)
GI50 (A498): 13.5 µM (inactive)
GI50 (NCI-H460): 13.1 µM (inactive)
GI50 (IGROV-1): 7.94 µM (inactive)
GI50 (NCI-H226): 5.83 µM (inactive)
GI50 (HCT-15): 13.9 µM
GI50 (OVCAR-4): 4.02 µM (inactive)
GI50 (RPMI-8226): 0.482 µM (active)
GI50 (CCRF-CEM): 0.413 µM (active)
GI50 (DU-145): 11.2 µM (inactive)
GI50 (LOX IMVI): 3.46 µM (inactive)
GI50 (OVCAR-8): 10.5 µM (inactive)
GI50 (786-0): 8.47 µM (inactive)
GI50 (BT-549): 9.75 µM (inactive)
GI50 (M14): 11.4 µM (inactive)
GI50 (NCI/ADR-RES): 12.4 µM (inactive)
GI50 (TK-10): 12.5 µM (inactive)
GI50 (HOP-62): 14.7 µM (inactive)
GI50 (UACC-62): 5.81 µM (inactive)
GI50 (K562): 2.12 µM (inactive)
GI50 (KM12): 10 µM (inactive)
GI50 (NCI-H23): 5.13 µM (inactive)
GI50 (SF-295): 11.1 µM (inactive)
GI50 (SW-620): 9.98 µM (inactive)
GI50 (UO-31): 1.19 µM (inactive)
GI50 (MCF7): 3.37 µM (inactive)
GI50 (MOLT-4): 0.393 µM (active)
GI50 (SNB-19): 11.1 µM (inactive)
GI50 (EKVX): 8.47 µM (inactive)
GI50 (MDA-N): 8.28 µM (inactive)
GI50 (HCT-116): 6.55 µM (inactive)
GI50 (OVCAR-5): 14.7 µM (inactive)
GI50 (SK-MEL-28): 14.4 µM (inactive)
GI50 (SF-268): 5.58 µM (inactive)
GI50 (Hs-578T): 9.55 µM (inactive)
GI50 (NCI-H522): 0.718 µM (active)
GI50 (UACC-257): 8.85 µM (inactive)
GI50 (SK-OV-3): 12.2 µM (inactive)
GI50 (Malme-3M): 11 µM (inactive)
GI50 (COLO 205): 3.71 µM (inactive)
GI50 (OVCAR-3): 2.26 µM (inactive)
GI50 (SR): 1.08 µM (active)
GI50 (SF-539): 2.7 µM (inactive)
GI50 (HT-29): 6.21 µM (inactive)
GI50 (ACHN): 12.1 µM (inactive)
GI50 (PC-3): 5.89 µM (inactive)
GI50 (U-251): 6.58 µM (inactive)

CC(=O)CC1CCC(=O)/C=C/C(=O)OC(CC(C)=O)CCC(=O)/C=C/C(=O)O1 (configuration not stated)
GI50 (T47D): 2.09 µM (inactive)
GI50 (MDA-MB-231): 5.09 µM (inactive)
GI50 (SK-MEL-5): 13.8 µM (inactive)
GI50 (HCC 2998): 22.8 µM (inactive)
GI50 (CAKI-1): 6.53 µM (inactive)
GI50 (SK-MEL-2): 6.61 µM (inactive)
GI50 (SNB-75): 12.8 µM (inactive)
GI50 (SN12C): 8.55 µM (inactive)
GI50 (HOP-92): 3.78 µM (inactive)
GI50 (A549): 21.7 µM (inactive)
GI50 (RXF 393): 3.22 µM (inactive)
GI50 (MDA-MB-435): 17 µM (inactive)
GI50 (HL-60): 2.45 µM (inactive)
GI50 (A498): 18.3 µM (inactive)
GI50 (NCI-H460): 18.5 µM (inactive)
GI50 (IGROV-1): 16.1 µM (inactive)
GI50 (NCI-H226): 33 µM (inactive)
GI50 (HCT-15): 2.1 µM
GI50 (OVCAR-4): 7.83 µM (inactive)
GI50 (RPMI-8226): 2.9 µM (inactive)
GI50 (CCRF-CEM): 1.6 µM (inactive)
GI50 (DU-145): 19.6 µM (inactive)
GI50 (LOX IMVI): 18.6 µM (inactive)
GI50 (OVCAR-8): 19.3 µM (inactive)
GI50 (786-0): 5.15 µM (inactive)
GI50 (BT-549): 3.2 µM (inactive)
GI50 (M14): 3.7 µM (inactive)
GI50 (NCI/ADR-RES): 19.9 µM (inactive)
GI50 (TK-10): 7.35 µM (inactive)
GI50 (HOP-62): 23.3 µM (inactive)
GI50 (UACC-62): 14.6 µM (inactive)
GI50 (K562): 3.25 µM (inactive)
GI50 (KM12): 20.8 µM (inactive)
GI50 (NCI-H23): 17.5 µM (inactive)
GI50 (SF-295): 13.6 µM (inactive)
GI50 (SW-620): 1.67 µM (inactive)
GI50 (UO-31): 12.6 µM (inactive)
GI50 (MCF7): 9.25 µM (inactive)
GI50 (MOLT-4): 2.19 µM (inactive)
GI50 (SNB-19): 19.8 µM (inactive)
GI50 (EKVX): 8.02 µM (inactive)
GI50 (MDA-N): 9.53 µM (inactive)
GI50 (HCT-116): 4.1 µM (inactive)
GI50 (OVCAR-5): 17.6 µM (inactive)
GI50 (SK-MEL-28): 7.33 µM (inactive)
GI50 (SF-268): 25.9 µM (inactive)
GI50 (Hs-578T): 27.9 µM (inactive)
GI50 (NCI-H522): 1.14 µM (inactive)
GI50 (UACC-257): 15.5 µM (inactive)
GI50 (SK-OV-3): 20.7 µM (inactive)
GI50 (Malme-3M): 2.43 µM (inactive)
GI50 (COLO 205): 1.77 µM (inactive)
GI50 (OVCAR-3): 6.79 µM (inactive)
GI50 (SR): 2.23 µM (inactive)
GI50 (SF-539): 19.3 µM (inactive)
GI50 (HT-29): 11.2 µM (inactive)
GI50 (ACHN): 3.44 µM (inactive)
GI50 (PC-3): 15 µM (inactive)
GI50 (U-251): 21.4 µM (inactive)

COc1ccc(/C=C2\CCC(C)C3=C2NC(=S)NC3c2ccc(OC)c(OC)c2)cc1OC (configuration not stated)
GI50 (T47D): 2.33 µM (inactive)
GI50 (MDA-MB-231): 18.2 µM (inactive)
GI50 (SK-MEL-5): 12.5 µM (inactive)
GI50 (HCC 2998): 74.1 µM (inactive)
GI50 (CAKI-1): 15.6 µM (inactive)
GI50 (SK-MEL-2): 26.5 µM (inactive)
GI50 (SNB-75): > 100 µM (inactive)
GI50 (SN12C): 24.9 µM (inactive)
GI50 (HOP-92): 36.1 µM (inactive)
GI50 (A549): 16.9 µM (inactive)
GI50 (RXF 393): > 10 µM (inactive)
GI50 (MDA-MB-435): 6.3 µM (inactive)
GI50 (HL-60): 3.6 µM (inactive)
GI50 (A498): > 31.6 µM (inactive)
GI50 (NCI-H460): 41.8 µM (inactive)
GI50 (IGROV-1): 13.6 µM (inactive)
GI50 (NCI-H226): > 78 µM (inactive)
GI50 (HCT-15): 9.95 µM
GI50 (OVCAR-4): 35.4 µM (inactive)
GI50 (RPMI-8226): 5.16 µM (inactive)
GI50 (CCRF-CEM): 8.95 µM (inactive)
GI50 (DU-145): 27.2 µM (inactive)
GI50 (LOX IMVI): 17.4 µM (inactive)
GI50 (OVCAR-8): 26.1 µM (inactive)
GI50 (786-0): 22.3 µM (inactive)
GI50 (BT-549): 13.3 µM (inactive)
GI50 (M14): 19.5 µM (inactive)
GI50 (NCI/ADR-RES): 27.5 µM (inactive)
GI50 (TK-10): 19.7 µM (inactive)
GI50 (HOP-62): > 100 µM (inactive)
GI50 (UACC-62): 20.2 µM (inactive)
GI50 (K562): 3.99 µM (inactive)
GI50 (KM12): 12 µM (inactive)
GI50 (NCI-H23): > 10 µM (inactive)
GI50 (SF-295): 12 µM (inactive)
GI50 (SW-620): 26.1 µM (inactive)
GI50 (UO-31): 12.6 µM (inactive)
GI50 (MCF7): 14.9 µM (inactive)
GI50 (MOLT-4): 4.99 µM (inactive)
GI50 (SNB-19): 30.4 µM (inactive)
GI50 (EKVX): 20.1 µM (inactive)
GI50 (MDA-N): 3.83 µM (inactive)
GI50 (HCT-116): 15.3 µM (inactive)
GI50 (OVCAR-5): > 31.6 µM (inactive)
GI50 (SK-MEL-28): > 31.6 µM (inactive)
GI50 (SF-268): 25.5 µM (inactive)
GI50 (Hs-578T): 30.8 µM (inactive)
GI50 (NCI-H522): > 100 µM (inactive)
GI50 (UACC-257): > 31.6 µM (inactive)
GI50 (SK-OV-3): 29.9 µM (inactive)
GI50 (Malme-3M): > 10 µM (inactive)
GI50 (COLO 205): 8.59 µM (inactive)
GI50 (OVCAR-3): 24.4 µM (inactive)
GI50 (SR): 2.65 µM (inactive)
GI50 (SF-539): 27.2 µM (inactive)
GI50 (HT-29): 26 µM (inactive)
GI50 (ACHN): 24.3 µM (inactive)
GI50 (PC-3): 10.7 µM (inactive)
GI50 (U-251): 24.6 µM (inactive)
